The record followed here is US10696634B2, “Pyridine compounds as fungicides” (BASF SE, priority 2015, dated 2020).

The structures appear in SMILES notation.

The test system of one assay is Botrytis cinerea. As to the kind of experiment: Microtiterplate test against grey mold Botrytis cinerea. The assay is classed as cell-based. The conditions noted are these: comparative example, 405 nm 9 days after inoculation.
The test system of another assay is Leptosphaeria nodorum. As to the kind of experiment: Microtiterplate test against wheat leaf spots caused by Leptosphaeria nodorum. In kind it is cell-based. The following applies: comparative example, 405 nm 9 days after inoculation.

Consider `CCOC(C)c1c(F)cccc1Oc1cnc(C)c(C)c1` (stereo not shown) [Example I-16], for which the entries for the “Growth (%) at 31 ppm” value in the assay on Botrytis cinerea and in the assay with Leptosphaeria nodorum were 34% and 40%, respectively.
On the same counts, the results for `COC(C)c1c(F)cccc1Oc1cnc(C)c(C)c1` (stereo not shown) [State of the art] are 58% and 68%.
